Experimental data taken from PubChem BioAssay AID1259407 (Chemical Carcinogenesis Research Information System (CCRIS), 2018).
Activity calls are given as the source filed them. How the calls were made is not given here.

Tested on: CCRIS mutagenicity, Ames/micronucleus/aberration tests
Assay: CCRIS mutagenicity studies
[1] = Test System: AMES SALMONELLA TYPHIMURIUM, Strain/Indicator: TA98, Metabolic Activation: NONE, Method: STANDARD PLATE
[2] = Test System: AMES SALMONELLA TYPHIMURIUM, Strain/Indicator: TA100, Metabolic Activation: NONE, Method: STANDARD PLATE
[3] = Test System: AMES SALMONELLA TYPHIMURIUM, Strain/Indicator: TA1535, Metabolic Activation: NONE, Method: STANDARD PLATE
[4] = Test System: AMES SALMONELLA TYPHIMURIUM, Strain/Indicator: TA1537, Metabolic Activation: NONE, Method: STANDARD PLATE
[5] = Test System: AMES SALMONELLA TYPHIMURIUM, Strain/Indicator: TA1538, Metabolic Activation: NONE, Method: STANDARD PLATE

What does the source list for CC(C)n1c(/C=C/[C@H](O)C[C@H](O)CC(=O)O)c(-c2ccc(F)cc2)c2ccccc21?
mutagenic call (End Point: AMES SALMONELLA TYPHIMURIUM, Test System: TA98, Metabolic Activation: NONE, Method: STANDARD PLATE): inactive; negative; mutagenic call (End Point: AMES SALMONELLA TYPHIMURIUM, Test System: TA98, Metabolic Activation: RAT, LIVER, S-9, AROCLOR 1254, Method: STANDARD PLATE): inactive; negative; mutagenic call (End Point: AMES SALMONELLA TYPHIMURIUM, Test System: TA100, Metabolic Activation: NONE, Method: STANDARD PLATE): inactive; negative; mutagenic call (End Point: AMES SALMONELLA TYPHIMURIUM, Test System: TA100, Metabolic Activation: RAT, LIVER, S-9, AROCLOR 1254, Method: STANDARD PLATE): inactive; negative; mutagenic call (End Point: AMES SALMONELLA TYPHIMURIUM, Test System: TA1535, Metabolic Activation: NONE, Method: STANDARD PLATE): inactive; negative; mutagenic call (End Point: AMES SALMONELLA TYPHIMURIUM, Test System: TA1535, Metabolic Activation: RAT, LIVER, S-9, AROCLOR 1254, Method: STANDARD PLATE): inactive; negative; mutagenic call (End Point: AMES SALMONELLA TYPHIMURIUM, Test System: TA1537, Metabolic Activation: NONE, Method: STANDARD PLATE): inactive; negative; mutagenic call (End Point: AMES SALMONELLA TYPHIMURIUM, Test System: TA1537, Metabolic Activation: RAT, LIVER, S-9, AROCLOR 1254, Method: STANDARD PLATE): inactive; negative; mutagenic call (End Point: AMES SALMONELLA TYPHIMURIUM, Test System: TA1538, Metabolic Activation: NONE, Method: STANDARD PLATE): inactive; negative; mutagenic call (End Point: AMES SALMONELLA TYPHIMURIUM, Test System: TA1538, Metabolic Activation: RAT, LIVER, S-9, AROCLOR 1254, Method: STANDARD PLATE): inactive; negative; mutagenic call (End Point: E. COLI, Test System: WP2 UVRA/PKM101, Metabolic Activation: NONE, Method: STANDARD PLATE): inactive; negative; mutagenic call (End Point: E. COLI, Test System: WP2 UVRA/PKM101, Metabolic Activation: RAT, LIVER, S-9, AROCLOR 1254, Method: STANDARD PLATE): inactive; negative; mutagenic call (End Point: E. COLI, Test System: WP2 UVRA, Metabolic Activation: NONE, Method: STANDARD PLATE): inactive; negative; mutagenic call (End Point: E. COLI, Test System: WP2 UVRA, Metabolic Activation: RAT, LIVER, S-9, AROCLOR 1254, Method: STANDARD PLATE): inactive; negative; mutagenic call (End Point: IN VITRO CHROMOSOMAL ABERRATIONS, Test System: CHINESE HAMSTER V79A, Metabolic Activation: NONE): inactive; negative; mutagenic call (End Point: IN VITRO CHROMOSOMAL ABERRATIONS, Test System: CHINESE HAMSTER V79A, Metabolic Activation: RAT, LIVER, S-9, AROCLOR 1254): inactive; negative; mutagenic call (End Point: IN VIVO MICRONUCLEUS, Test System: BONE MARROW POLYCHROMATIC ERYTHROCYTES, Species: MOUSE, Strain/Sex: CD-1/MALE, FEMALE, Route: GAVAGE): inactive; negative; mutagenic call [1]: inactive; negative; mutagenic call (Test System: AMES SALMONELLA TYPHIMURIUM, Strain/Indicator: TA98, Metabolic Activation: RAT, LIVER, S-9, AROCLOR 1254, Method: STANDARD PLATE): inactive; negative; mutagenic call [2]: inactive; negative; mutagenic call (Test System: AMES SALMONELLA TYPHIMURIUM, Strain/Indicator: TA100, Metabolic Activation: RAT, LIVER, S-9, AROCLOR 1254, Method: STANDARD PLATE): inactive; negative; mutagenic call [3]: inactive; negative; mutagenic call (Test System: AMES SALMONELLA TYPHIMURIUM, Strain/Indicator: TA1535, Metabolic Activation: RAT, LIVER, S-9, AROCLOR 1254, Method: STANDARD PLATE): inactive; negative; mutagenic call [4]: inactive; negative; mutagenic call (Test System: AMES SALMONELLA TYPHIMURIUM, Strain/Indicator: TA1537, Metabolic Activation: RAT, LIVER, S-9, AROCLOR 1254, Method: STANDARD PLATE): inactive; negative; mutagenic call [5]: inactive; negative; mutagenic call (Test System: AMES SALMONELLA TYPHIMURIUM, Strain/Indicator: TA1538, Metabolic Activation: RAT, LIVER, S-9, AROCLOR 1254, Method: STANDARD PLATE): inactive; negative; mutagenic call (Test System: CHINESE HAMSTER FIBROBLASTS, Strain/Indicator: CHINESE HAMSTER V79A/HGPRT, Metabolic Activation: NONE): inactive; negative; mutagenic call (Test System: CHINESE HAMSTER FIBROBLASTS, Strain/Indicator: CHINESE HAMSTER V79A/HGPRT, Metabolic Activation: RAT, LIVER, S-9, AROCLOR 1254): inactive; negative; mutagenic call (Test System: CHINESE HAMSTER V-79, Strain/Indicator: V-79 (HGPRT), Metabolic Activation: NONE): inactive; negative; mutagenic call (Test System: CHINESE HAMSTER V-79, Strain/Indicator: V-79 (HGPRT), Metabolic Activation: RAT, LIVER, S-9, AROCLOR 1254): inactive; negative; mutagenic call (Test System: E. COLI, Strain/Indicator: WP2 UVRA (PKM101), Metabolic Activation: NONE, Method: STANDARD PLATE): inactive; negative; mutagenic call (Test System: E. COLI, Strain/Indicator: WP2 UVRA (PKM101), Metabolic Activation: RAT, LIVER, S-9, AROCLOR 1254, Method: STANDARD PLATE): inactive; negative; mutagenic call (Test System: E. COLI, Strain/Indicator: WP2 UVRA, Metabolic Activation: NONE, Method: STANDARD PLATE): inactive; negative; mutagenic call (Test System: E. COLI, Strain/Indicator: WP2 UVRA, Metabolic Activation: RAT, LIVER, S-9, AROCLOR 1254, Method: STANDARD PLATE): inactive; negative

NNc1ccn([C@@H]2C[C@H](O)[C@@H](CO)O2)c(=O)n1 was tested. Which mutagenic call (Test System: CHINESE HAMSTER V-79, Strain/Indicator: V-79/6-THIOGUANINE, Metabolic Activation: NONE, Method: REPLATING) did it give?
The mutagenic call was “inactive; negative”.

Which mutagenic call [1] does the source give for COC(=O)c1cc(OC)c2c(c1-c1c(C(=O)OC)cc(OC)c3c1OCO3)OCO2 here?
The mutagenic call was “inactive; negative”.

And the mutagenic call (Test System: AMES SALMONELLA TYPHIMURIUM, Strain/Indicator: TA98, Metabolic Activation: S-9, Method: STANDARD PLATE)?
The mutagenic call was “inactive; negative”.

What about the mutagenic call [2] of the same compound?
The mutagenic call was “inactive; negative”.

What about the mutagenic call (Test System: AMES SALMONELLA TYPHIMURIUM, Strain/Indicator: TA100, Metabolic Activation: S-9, Method: STANDARD PLATE) of the same compound?
The mutagenic call was “inactive; negative”.

And the mutagenic call [3]?
Its mutagenic call is “inactive; negative”.

What about the mutagenic call (Test System: AMES SALMONELLA TYPHIMURIUM, Strain/Indicator: TA1535, Metabolic Activation: S-9, Method: STANDARD PLATE) of the same compound?
The mutagenic call was “inactive; negative”.

And the mutagenic call [4]?
Its mutagenic call is “inactive; negative”.

What about the mutagenic call (Test System: AMES SALMONELLA TYPHIMURIUM, Strain/Indicator: TA1537, Metabolic Activation: S-9, Method: STANDARD PLATE) of the same compound?
Its mutagenic call is “inactive; negative”.

Which mutagenic call [1] does the source give for O=[N+]([O-])c1cc(Cl)cc(Sc2cc(Cl)cc([N+](=O)[O-])c2O)c1O here?
Its mutagenic call is “inactive; negative”.

And the mutagenic call (Test System: AMES SALMONELLA TYPHIMURIUM, Strain/Indicator: TA98, Metabolic Activation: RAT, LIVER, S-9, KANECHLOR 400, Method: STANDARD PLATE)?
Its mutagenic call is “inactive; negative”.

And the mutagenic call [2]?
The mutagenic call was “inactive; negative”.

And the mutagenic call (Test System: AMES SALMONELLA TYPHIMURIUM, Strain/Indicator: TA100, Metabolic Activation: RAT, LIVER, S-9, KANECHLOR 400, Method: STANDARD PLATE)?
Its mutagenic call is “inactive; negative”.

What about the mutagenic call [3] of the same compound?
The mutagenic call was “inactive; negative”.

What about the mutagenic call (Test System: AMES SALMONELLA TYPHIMURIUM, Strain/Indicator: TA1535, Metabolic Activation: RAT, LIVER, S-9, KANECHLOR 400, Method: STANDARD PLATE) of the same compound?
The mutagenic call was “inactive; negative”.

And the mutagenic call [4]?
Its mutagenic call is “inactive; negative”.

And the mutagenic call (Test System: AMES SALMONELLA TYPHIMURIUM, Strain/Indicator: TA1537, Metabolic Activation: RAT, LIVER, S-9, KANECHLOR 400, Method: STANDARD PLATE)?
The mutagenic call was “inactive; negative”.

And the mutagenic call [5]?
The mutagenic call was “inactive; negative”.

What about the mutagenic call (Test System: AMES SALMONELLA TYPHIMURIUM, Strain/Indicator: TA1538, Metabolic Activation: RAT, LIVER, S-9, KANECHLOR 400, Method: STANDARD PLATE) of the same compound?
Its mutagenic call is “inactive; negative”.

For CCc1cccc(CC)c1NC(=O)CCl, which mutagenic call (Test System: AMES SALMONELLA TYPHIMURIUM, Strain/Indicator: TA98, Metabolic Activation: NONE, Method: PREINCUBATION) is on record?
Its mutagenic call is “inactive; negative”.

What about the mutagenic call (Test System: AMES SALMONELLA TYPHIMURIUM, Strain/Indicator: TA98, Metabolic Activation: RAT, LIVER, MICROSOMES, PHENOBARBITAL, Method: PREINCUBATION) of the same compound?
Its mutagenic call is “inactive; negative”.

And the mutagenic call (Test System: AMES SALMONELLA TYPHIMURIUM, Strain/Indicator: TA100, Metabolic Activation: NONE, Method: PREINCUBATION)?
Its mutagenic call is “active; positive”.

What about the mutagenic call (Test System: AMES SALMONELLA TYPHIMURIUM, Strain/Indicator: TA100, Metabolic Activation: RAT, LIVER, MICROSOMES, PHENOBARBITAL, Method: PREINCUBATION) of the same compound?
The mutagenic call was “active; positive”.

For Cc1ccc2cc3c(ccc4ccccc43)c3c2c1C(=O)C3, which mutagenic call (Test System: CHINESE HAMSTER V-79, Strain/Indicator: V-79/8-AZAGUANINE, Metabolic Activation: RAT, LIVER, S-9, AROCLOR 1254, Method: STANDARD PLATE) is on record?
Its mutagenic call is “active; positive”.
